# Test results from PMC10754118, “Lipophilic Nucleoside Triphosphate Prodrugs of Anti‐HIV Active Nucleoside Analogs as Potential Antiviral Compounds” (Advanced Science, 2023).
# Like-named read-outs stand apart in the source and are kept apart here.
# Assays:
# [1] = Chemical hydrolysis in phosphate buffer saline (PBS, pH 7.3); type: physicochemical; conditions: PBS pH 7.3, 37 °C, read-out: PBS pH 7.3 t 1/2 (converted)
# Experimental: Part 4. Chemical Hydrolysis of TriPPPro-compounds 10 and 20.
# Second prepare 1.9 mM hydrolysis […]
# Then, aliquots of 50 µL human
# in vitro = conditions: human
# Experimental: All TriPPPro‐compounds 10 and 20, as well as their parent nucleosides and the corresponding NTPs, were evaluated for their antiviral activity (expressed as EC50 values) against HIV‐1 (wild‐type CEM/0 cells) and HIV‐2 (wild‐type CEM/0 cells and thymidine kinase‐deficient (CEM/TK^−) cells) with concomitant determination of cytotoxicity in the same cell line (Table 3 ).
# HIV‐2 [ROD] = assay: Anti-HIV activity, HIV-2 in wild-type CEM/0 cells; type: cell-based; conditions: Human immunodeficiency virus 2, CCRF-CEM, read-out: Antiviral activity CEM/0 HIV‐2 [ROD] EC50
# Experimental: (§1) Part 9. Anti-HIV activity assay.
# (§2) The produce was used as previously reported. 5 Inhibition of HIV-1(IIIB)- and HIV-2(ROD)-induced cytopathogenicity in wild-type CEM/0 and thymidine kinase-deficient CEM/TK– cell cultures was measured in […]
# (§3) containing appropriate dilutions of the test compounds. After 4−5 days of incubation at 37 °C in a CO2-controlled humidified atmosphere, CEM giant (syncytium) cell formation was examined microscopically. The […]
# (§4) giant cell formation by 50%.
# (§5) Part 10. Primer-extension assays. […]
# HIV‐1 [HE] = assay: Anti-HIV activity, HIV-1 in wild-type CEM/0 cells; type: cell-based; conditions: Human immunodeficiency virus 1, CCRF-CEM, read-out: Antiviral activity CEM/0 HIV‐1 [HE] EC50
# HIV‐2 [ROD)] = assay: Anti-HIV activity, HIV-2 in thymidine kinase-deficient CEM/TK^− cells; type: cell-based
# Experimental: as §1, §2, §3, §4, §5
# [2] = CEM/0 cells (wild-type CD4+ T-cells)
# [3] = wild-type CEM/0 cells, mean ±SD n = 2–3
# [4] = Human immunodeficiency virus 2, CEM-TK(-), thymidine kinase-deficient CEM/TK^− cells, mean ±SD n = 2–3; read-out: Antiviral activity CEM/TK^− HIV‐2 [ROD)] EC50
# [5] = Human immunodeficiency virus 2, CEM-TK(-), read-out: Antiviral activity CEM/TK^− HIV‐2 [ROD)] EC50
half-life at 1.9 mM [1],EC50 (HIV‐2 [ROD]; [3]),EC50 (HIV‐1 [HE]; [3]),EC50 (HIV‐2 [ROD)]; [4]),"EC50 (HIV‐2 [ROD)]; thymidine kinase-deficient CEM/TK^− cells, mean ±SD n = 2–3; read-out: Antiviral activity CEM/TK^− HIV‐2 [ROD)] EC50)",Structure (SMILES),CC50 (in vitro; [2]),EC50 (HIV‐2 [ROD]),EC50 (HIV‐1 [HE]),EC50 (HIV‐2 [ROD)]; [5]),CC50 (in vitro)
> 83.3 days,860 ± 190 nM,1500 ± 1390 nM,280 ± 120 nM,,CCCCCCCCCCCCCCCCCCOP(=O)(OCC(CC)CCCC)OP(=O)(O)OP(=O)(O)OC[C@H]1O[C@@H](n2cc(C)c(=O)[nH]c2=O)C[C@@H]1F (stereo partly shown) [10ew],52600 ± 10900 nM,,,,
> 83.3 days,4210 ± 370 nM,> 10000 nM,11400 ± 4240 nM,,CCCCCCCCCCCCCCCCCCOP(=O)(OCC(CC)CCCC)OP(=O)(O)OP(=O)(O)OC[C@H]1O[C@@H](n2cc(/C=C/Br)c(=O)[nH]c2=O)C[C@@H]1O (stereo partly shown) [10gw],60300 ± 20700 nM,,,,
> 16.7 days,780 ± 300 nM,300 ± 300 nM,1580 ± 1970 nM,,CCCCCCCCCCCCCCCCCCOP(=O)(OCc1ccc(OC(=O)CCCC)cc1)OP(=O)(O)OP(=O)(O)OC[C@H]1O[C@@H](n2cc(C)c(=O)[nH]c2=O)C[C@@H]1F (stereo partly shown) [10ey],54100 ± 15800 nM,,,,
> 62.5 days,8010 ± 2810 nM,7580 ± 2200 nM,11200 ± 4990 nM,,CCCCCCCCCCCCCCCCCCP(=O)(OCc1ccc(OC(=O)CCCC)cc1)OP(=O)(O)OP(=O)(O)OC[C@H]1O[C@@H](n2cc(/C=C/Br)c(=O)[nH]c2=O)C[C@@H]1O (stereo partly shown) [10gz],43900 ± 8300 nM,,,,
15 days,14 ± 16 nM,26 ± 28 nM,360 ± 240 nM,,CCCCCCCCCCCCCCCCCCOP(=O)(OCc1ccc(OC(=O)CCCC)cc1)OP(=O)(O)OP(=O)(O)OC[C@H]1O[C@@H](n2ccc(=O)[nH]c2=O)C[C@@H]1F (stereo partly shown) [10fy],43300 ± 5100 nM,,,,
> 83.3 days,2200 ± 1240 nM,1200 ± 50 nM,> 20000 nM,,CCCCCCCCCCCCCCCCCCOP(=O)(OCC(CC)CCCC)OP(=O)(O)OP(=O)(O)OC[C@H]1O[C@@H](n2cc(Cl)c(=O)[nH]c2=O)C[C@@H]1F (stereo partly shown) [10dw],56100 ± 15800 nM,,,,
> 83.3 days,140 ± 62 nM,370 ± 470 nM,110 ± 140 nM,,CCCCCCCCCCCCCCCCCCOP(=O)(OCC(CC)CCCC)OP(=O)(O)OP(=O)(O)OC[C@H]1O[C@@H](n2ccc(=O)[nH]c2=O)C[C@@H]1F (stereo partly shown) [10fw],63500 ± 27200 nM,,,,
7.54 days,180 ± 110 nM,100 ± 30 nM,26 ± 35 nM,,CCCCCCCCCCCCCCCCCCOP(=O)(OCC(CC)CCCC)OP(=O)(O)OP(=O)(O)OC[C@@H]1C=C[C@H](n2cnc3c(NC4CC4)nc(N)nc32)C1 (stereo partly shown) [10hw],> 100000 nM,,,,
8.46 days,39 ± 33 nM,64 ± 80 nM,160 ± 40 nM,,CCCCCCCCCCCCCCCCCCP(=O)(OCc1ccc(OC(=O)CCCC)cc1)OP(=O)(O)OP(=O)(O)OC[C@H]1O[C@@H](n2ccc(=O)[nH]c2=O)C[C@@H]1F (stereo partly shown) [10fz],42000 ± 10600 nM,,,,

# Continued, molecule first:
Structure (SMILES),half-life at 1.9 mM [1],EC50 (HIV‐2 [ROD]; [3]),EC50 (HIV‐1 [HE]; [3]),EC50 (HIV‐2 [ROD)]; [4]),"EC50 (HIV‐2 [ROD)]; thymidine kinase-deficient CEM/TK^− cells, mean ±SD n = 2–3; read-out: Antiviral activity CEM/TK^− HIV‐2 [ROD)] EC50)",CC50 (in vitro; [2]),EC50 (HIV‐2 [ROD]),EC50 (HIV‐1 [HE]),EC50 (HIV‐2 [ROD)]; [5]),CC50 (in vitro)
"Nc1nc(NC2CC2)c2ncn([C@H]3C=C[C@@H](CO)C3)c2n1 [1h (ABC), abacavir, reference compound]",,,,,,> 100000 nM,,,,
CCCCCCCCCCCCCCCCCCP(=O)(OCCCC)OP(=O)(O)OP(=O)(O)OC[C@@H]1O[C@H](n2cc(F)c(N)nc2=O)CS1 (stereo partly shown) [10cx],> 83.3 days,,,,,46000 nM,94 ± 23 nM,49 ± 45 nM,11 nM,
"O=c1[nH]c(=O)n([C@H]2C[C@H](F)[C@@H](CO)O2)cc1Cl [1d (FddClU), FddClU, reference compound]",,1950 ± 2630 nM,820 ± 330 nM,> 100000 nM,,> 100000 nM,,,,
"O=c1ccn([C@H]2C[C@H](F)[C@@H](CO)O2)c(=O)[nH]1 [1e (FddU), FddU, reference compound]",,150 ± 17 nM,210 ± 20 nM,> 100000 nM,,> 100000 nM,,,,
CCCCCCCCCCCCCCCCCCP(=O)(OCCCC)OP(=O)(O)OP(=O)(O)OC[C@H]1O[C@@H](n2cc(/C=C/Br)c(=O)[nH]c2=O)C[C@@H]1O (stereo partly shown) [10gx],> 41.7 days,,,,,51500 ± 17000 nM,> 10000 nM,> 10000 nM,24000 ± 2720 nM,
"Cc1cn([C@H]2C[C@H](N=[N+]=[N-])[C@@H](CO[P@](=O)(O)O[P@](=O)(O)OP(=O)(O)O)O2)c(=O)[nH]c1=O [AZTTP, reference compound]",,,,,,> 100000 nM,5.5 ± 4 nM,6.9 ± 8.7 nM,57900 ± 10900 nM,
CCCCCCCCCCCCCCCCCCP(=O)(OCCCC)OP(=O)(O)OP(=O)(O)OC[C@H]1O[C@@H](n2cc(C)c(=O)[nH]c2=O)C[C@@H]1F (stereo partly shown) [10ex],6.17 days,,,,,43600 nM,520 ± 670 nM,390 ± 130 nM,1010 ± 1140 nM,
"O=c1[nH]c(=O)n([C@H]2C[C@H](O)[C@@H](CO)O2)cc1/C=C/Br [1g (BVDU), BVDU, reference compound]",,> 250000 nM,> 250000 nM,> 250000 nM,,,,,,207000 ± 60000 nM
CCCCCCCCCCCCCCCCCCOP(=O)(OCC(CC)CCCC)OP(=O)(O)OP(=O)(O)OC[C@H]1O[C@@H](n2cc(C)c(=O)[nH]c2=O)C[C@@H]1N=[N+]=[N-] (stereo partly shown) [10bw],> 83.3 days,54 ± 28 nM,160 ± 190 nM,6100 ± 3000 nM,,45600 nM,,,,
"Cc1cn([C@H]2C[C@H](F)[C@@H](CO)O2)c(=O)[nH]c1=O [1f (FLT), FLT, reference compound]",,4.3 ± 1.7 nM,2.5 ± 2.9 nM,> 100000 nM,,> 100000 nM,,,,
CCCCCCCCCCCCCCCCCCP(=O)(OCCCC)OP(=O)(O)OP(=O)(O)OC[C@H]1O[C@@H](n2cc(Cl)c(=O)[nH]c2=O)C[C@@H]1F (stereo partly shown) [10dx],> 83.3 days,,,,,54400 ± 15900 nM,2230 ± 1200 nM,2590 ± 710 nM,3210 ± 1120 nM,
"Cc1cn([C@H]2C[C@H](N=[N+]=[N-])[C@@H](CO)O2)c(=O)[nH]c1=O [1b (AZT), AZT, reference compound]",,3.4 ± 2.1 nM,14 ± 8.5 nM,> 150000 nM,> 100000 nM,> 100000 nM,,,,
CCCCCCCCCCCCCCCCCCP(=O)(OCCCC)OP(=O)(O)OP(=O)(O)OC[C@H]1O[C@@H](n2ccc(=O)[nH]c2=O)C[C@@H]1F (stereo partly shown) [10fx],> 83.3 days,,,,,67300 ± 33800 nM,29 ± 7.1 nM,41 ± 44 nM,150 ± 60 nM,
CCCCCCCCCCCCCCCCCCOP(=O)(OCC(CC)CCCC)OP(=O)(O)OP(=O)(O)OC[C@@H]1O[C@H](n2cc(F)c(N)nc2=O)CS1 (stereo partly shown) [10cw],> 83.3 days,180 ± 100 nM,210 ± 60 nM,120 ± 100 nM,,64000 ± 23600 nM,,,,
"Nc1nc(=O)n([C@@H]2CS[C@H](CO)O2)cc1F [1c (FTC), FTC, reference compound]",,20 ± 1 nM,8.6 ± 5.7 nM,10 ± 10 nM,,> 100000 nM,,,,
CCCCCCCCCCCCCCCCCCP(=O)(OCc1ccc(OC(=O)CCCC)cc1)OP(=O)(O)OP(=O)(O)OC[C@@H]1O[C@H](n2cc(F)c(N)nc2=O)CS1 (stereo partly shown) [10cz],> 62.5 days,140 ± 40 nM,160 ± 60 nM,20 ± 21 nM,,66000 ± 35600 nM,,,,
